Experiment [1] concerns the target T1, unphosphorylated VEGF-R2Δ50 (Homo sapiens, UniProt P35968, DEL940-989/E990V).
T1 construct: VEGF-R2Δ50 contains residues 806–939 and 990–1171; made in house; host or cells: baculovirus/insect cell system
As to the kind of experiment: VEGF-R2 coupled spectrophotometric assay, unphosphorylated construct (FLVK). In kind it is biochemical. As to conditions: % inhibition at 50 nM compound; read-out: FLVK Ki % inh @ 50 nM. The method in brief:
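Human VEGF-R2Δ50 kinase (residues 806–939/990–1171, baculovirus-expressed; autophosphorylated form pre-treated with 3 mM ATP, 4° C, 2 h), 5–40 nM, with poly(E4Y1) in 200 mM HEPES pH 7.5; ADP coupled via PK/LDH to NADH oxidation at 340 nm. Phosphorylated: 1 mM ATP, 5.1 mM poly(E4Y1), 25 mM MgCl2; unphosphorylated: 3 mM ATP, 20 mM poly(E4Y1), 60 mM MgCl2, 2 mM MnCl2. Ki from activity at varying compound levels.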

For another experiment, the target named is T2, FGF-R1 (Homo sapiens, UniProt P11362, C488A/C584S/L457V).
T2 construct: starting from the endogenous methionine residue 456 to glutamate 766; made in house; host or cells: baculovirus vector expression system
The experiment in a line: Fibroblast Growth Factor (FGF-R) spectrophotometric assay. The settings on record: 1 μM compound; read-out: FGF-P % inhibit @1 μM. In kind it is biochemical. The method in brief: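 Baculovirus-expressed human FGF-R1 kinase domain (Met456–Glu766; L457V/C488A/C584S), 50 nM, with 2 mM ATP and 15 mM poly(E4Y1) in HEPES pH 7.5. ADP formation coupled via PK/LDH to NADH oxidation, read as A340 decrease. Ki from activity across varying compound concentrations.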

In another experiment the target is T3, KDR (Homo sapiens, UniProt P35968).
T3 construct: expressed in transfected cells; host or cells: porcine aorta endothelial (PAE) cells
The experiment in a line: KDR (VEGFR2) Phosphorylation in PAE-KDR Cells Assay. In kind it is cell-based. As to conditions: PAE cells overexpressing human KDR. How it is done:
This assay determines the ability of a test compound to inhibit the autophosphorylation of KDR in porcine aorta endothelial (PAE)-KDR cells. PAE cells that overexpress human KDR were used in this assay. The cells were cultured in Ham's F12 media supplemented with 10% fetal bovine serum (FBS) and 400 μg/mL G418. Thirty thousands cells were seeded into each well of a 96-well plate in 75 μL of growth media and allowed to attach for 6 hours at 37° C. Cells were then exposed to the starvation media (Ham's F12 media supplemented with 0.1% FBS) for 16 hours. After the starvation period was over, 10 μL of test agent in 5% DMSO in starvation media were added to the test wells and 10 μL of the vehicle (5% DMSO in starvation media) were added into the control wells. The final DMSO concentration in each well was 0.5%. Plates were incubated at […] for 1 hour and the cells were then stimulated with 500 ng/ml VEGF (commercially available from R & D System) in the presence of 2 mM Na3VO4 for 8 minutes. The cells were washed once with 1 mm Na3VO4 in HBSS and lysed by adding 50 μL per well of lysis buffer. […] Phosphorylation status was assessed by spectrophotometer reading at 450 nm. IC50 values were calculated by curve fitting using a four-parameter analysis.

For experiment [2], the target named is T4, phosphorylated VEGF-R2Δ50 (Homo sapiens, UniProt P35968, DEL940-989/E990V).
T4 construct: VEGF-R2Δ50 contains residues 806–939 and 990–1171; made in house; host or cells: baculovirus/insect cell system
The experiment in a line: VEGF-R2 coupled spectrophotometric (FLVK-P) assay, phosphorylated construct. In kind it is biochemical. The settings on record: Ki (nM). The source says:
This construct determines the ability of a test compound to inhibit tyrosine kinase activity. A construct (VEGF-R2Δ50) of the cytosolic domain of human vascular endothelial growth factor receptor 2 (VEGF-R2) lacking the 50 central residues of the 68 residues of the kinase insert domain was expressed in a baculovirus/insect cell system. Of the 1356 residues of full-length VEGF-R2, VEGF-R2Δ50 contains residues 806–939 and 990–1171, and also one point mutation (E99OV) within the kinase insert domain relative to wild-type VEGF-R2. Autophosphorylation of the purified construct was performed by incubation of the enzyme at a concentration of 4 μM in the presence of 3 mM ATP and 40 mM MgCl2 in 100 mM HEPES, pH 7.5, containing 5% glycerol and 5 mM DTT, at 4° C. for 2 h. […] See Parast et al., Biochemistry, 37,16788–16801 (1998).
The production of ADP from ATP that accompanies phosphoryl transfer was coupled to oxidation of NADH using phosphoenolpyruvate (PEP) and a system having pyruvate kinase (PK) and lactic dehydrogenase (LDH). The oxidation of NADH was monitored by following the decrease of absorbance at 340 nm (e340=6.22 cm^−1 mM^−1) using a Beckman DU 650 spectrophotometer. […] Ki values were determined by measuring enzyme activity in the presence of varying concentrations of test compounds. The data were analyzed using Enzyme Kinetic and Kaleidagraph software.

The test system of experiment [3] is human umbilical vein endothelial cells (HUVEC). As to the kind of experiment: HUVEC Proliferation Assay (VEGF-stimulated). In kind it is cell-based. Put shortly: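 Serum-starved HUVEC (passage 3–4, F12K + 1% FBS, 24 h) pretreated 1 h with compound (final DMSO 0.1%), then stimulated with 6 ng/mL VEGF for 72 h. Proliferation read by 4 h MTT reduction, absorbance 595. IC50 from seven-point 0.5-log curves in triplicate; screening % inhibition normalised to VEGF-only and starvation controls.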

In another experiment the test system is HUVEC. The experiment in a line: bFGF Huvec. The settings on record: Homo sapiens. In kind it is cell-based.

T3 sequence (P35968 20-1356): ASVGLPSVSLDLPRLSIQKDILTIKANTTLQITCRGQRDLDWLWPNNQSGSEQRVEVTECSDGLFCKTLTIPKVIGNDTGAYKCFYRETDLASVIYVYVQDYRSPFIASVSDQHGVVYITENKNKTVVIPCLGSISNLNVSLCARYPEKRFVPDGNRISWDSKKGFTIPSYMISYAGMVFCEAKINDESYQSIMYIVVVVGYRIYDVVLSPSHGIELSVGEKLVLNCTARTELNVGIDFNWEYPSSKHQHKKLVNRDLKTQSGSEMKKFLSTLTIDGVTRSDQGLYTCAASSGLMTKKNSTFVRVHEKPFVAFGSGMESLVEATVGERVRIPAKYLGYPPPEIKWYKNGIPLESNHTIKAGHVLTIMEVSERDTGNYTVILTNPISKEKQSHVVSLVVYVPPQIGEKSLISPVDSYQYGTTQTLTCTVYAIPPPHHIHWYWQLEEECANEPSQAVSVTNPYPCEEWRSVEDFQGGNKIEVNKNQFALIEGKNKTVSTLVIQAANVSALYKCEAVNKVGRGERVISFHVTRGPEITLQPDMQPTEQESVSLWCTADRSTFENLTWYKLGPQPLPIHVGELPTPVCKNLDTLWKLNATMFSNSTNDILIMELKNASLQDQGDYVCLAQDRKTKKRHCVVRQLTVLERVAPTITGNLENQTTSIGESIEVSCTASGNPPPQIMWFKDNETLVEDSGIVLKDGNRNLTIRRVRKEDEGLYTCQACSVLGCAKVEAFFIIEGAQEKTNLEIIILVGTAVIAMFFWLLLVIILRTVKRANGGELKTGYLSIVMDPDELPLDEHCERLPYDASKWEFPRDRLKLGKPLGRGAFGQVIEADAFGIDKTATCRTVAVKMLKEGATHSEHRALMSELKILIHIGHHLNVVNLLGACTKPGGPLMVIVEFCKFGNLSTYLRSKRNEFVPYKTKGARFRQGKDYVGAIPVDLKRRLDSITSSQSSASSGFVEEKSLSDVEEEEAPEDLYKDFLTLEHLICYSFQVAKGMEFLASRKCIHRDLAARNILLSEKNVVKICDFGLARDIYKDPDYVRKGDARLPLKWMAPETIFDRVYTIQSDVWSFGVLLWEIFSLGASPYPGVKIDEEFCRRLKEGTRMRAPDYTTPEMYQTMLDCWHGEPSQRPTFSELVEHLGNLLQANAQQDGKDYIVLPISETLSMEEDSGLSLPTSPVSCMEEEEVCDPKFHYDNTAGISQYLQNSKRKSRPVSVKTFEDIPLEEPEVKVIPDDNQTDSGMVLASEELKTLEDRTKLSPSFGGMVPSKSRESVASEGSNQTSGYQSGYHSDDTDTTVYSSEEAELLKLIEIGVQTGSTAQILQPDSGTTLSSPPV
T1 sequence (P35968 with tags, fused parts or gaps DEL940-989/E990V limits assumed): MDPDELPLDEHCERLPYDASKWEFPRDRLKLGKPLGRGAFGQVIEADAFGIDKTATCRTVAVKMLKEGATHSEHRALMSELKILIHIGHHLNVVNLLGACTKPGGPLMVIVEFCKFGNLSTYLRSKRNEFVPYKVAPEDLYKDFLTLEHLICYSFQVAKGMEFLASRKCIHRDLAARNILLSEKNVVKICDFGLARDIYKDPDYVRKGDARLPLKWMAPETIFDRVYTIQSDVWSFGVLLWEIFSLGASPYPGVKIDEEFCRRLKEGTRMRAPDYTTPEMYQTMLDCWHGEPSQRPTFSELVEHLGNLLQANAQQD
T2 sequence (P11362 456-766 L457V/C488A/C584S): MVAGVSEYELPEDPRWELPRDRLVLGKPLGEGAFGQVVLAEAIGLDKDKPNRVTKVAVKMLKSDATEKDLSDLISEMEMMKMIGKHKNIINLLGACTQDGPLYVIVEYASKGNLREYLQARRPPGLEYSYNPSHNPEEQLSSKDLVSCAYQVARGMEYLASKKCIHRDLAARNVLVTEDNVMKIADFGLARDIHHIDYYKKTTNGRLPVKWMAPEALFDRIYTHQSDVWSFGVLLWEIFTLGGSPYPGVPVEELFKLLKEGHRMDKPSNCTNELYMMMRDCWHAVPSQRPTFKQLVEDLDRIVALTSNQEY
T4 sequence (P35968 with tags, fused parts or gaps DEL940-989/E990V limits assumed): as the sequence (P35968 with tags, fused parts or gaps DEL940-989/E990V limits assumed) above

As usually defined, the IC50 is the concentration that inhibits the measured activity by half. Read a low IC50 as inhibition by little substance. Take `Cc1ccnc(/C=C/c2n[nH]c3cc(Nc4ccccc4C(=O)NCc4ccccn4)ccc23)c1` [Example 37, 2-{3-[2-(4-Methyl-pyridin-2-yl)-vinyl]-1H-indazol6-ylamino}-N-pyridin-2-ylmethyl-benzamide]: the inhibition at 0.05 µM in experiment [1] was found to be 90%. Moreover, the inhibition at 1 µM on FGF-R1 was 45%. It took 0.76 nM to reach half-maximal inhibition at KDR (IC50).

A word on the Ki: it is a measure of affinity in units of concentration, obtained from inhibition or displacement. Turning to `Cc1ccnc(/C=C/c2n[nH]c3cc(Nc4ccccc4C(=O)NCC#CC4CC4)ccc23)c1` [Example 36, N-(3Cycloprop-2-ynyl)-2-{3-[(E)-2-(4-methyl-pyridin-2-yl)-vinyl]-1H-indazol-6-ylamino}-benzamide], the inhibition at 0.05 µM in experiment [1] turned out to be 95%. The same compound displayed a Ki in experiment [2] of 0.3 nM. Besides, at FGF-R1, the inhibition at 1 µM amounted to 69%. Further, the IC50 in experiment [3] was 1.67 nM; against KDR, 1.62 nM; in the experiment on HUVEC, 935 nM.

(Values after patent publication US7053107B2, “Indazole compounds and pharmaceutical compositions for inhibiting protein kinases, and methods for their use” (Agouron Pharmaceuticals, Inc., priority 2002, dated 2006).)
